Values after ≈ are worked out from the molar mass of the structure shown.
Legend:
Experiment in all cases: microbe, parasite or virus in culture
Parameters in all cases: CLSI broth microdilution MIC in LB, lowest concentration with no visible growth
[1] = test system: T1, E. coli ZJ487 (NDM-1); details: Escherichia coli; antibiotic alone; read-out: MIC (μg/mL) Alone
T1 construct: ZJ487 (NDM-1)
Method: (§1) MIC values were determined according to the broth microdilution guidelines of the Clinical and Laboratory Standards Institute (CLSI). After the tested strains were diluted with LB to a final concentration of 5×10^5 CFUs/mL, various concentrations of meropenem (0-256 μg/mL) and increasing concentrations of inhibitors (0-64 μg/mL) were added to the sterile 96-well plate, and further incubated for 18-24 h at 37 °C. The lowest concentration with no visible growth was considered as the MIC value. The synergistic effect of antibiotics and inhibitors was assessed by determining the fractional inhibitory concentration (FIC) index values according to the formula: FICI = (MIC of inhibitors in combination/MIC of inhibitors) + (MIC of antibiotics in combination/MIC of antibiotics).

[2] = test system: T2, E. coli D3 (NDM-1); details: Escherichia coli; antibiotic alone; read-out: MIC (μg/mL) Alone
T2 construct: D3 (NDM-1)
Method: as §1

[3] = test system: T3, E. coli ZC-YN7 (NDM-9); details: Escherichia coli; antibiotic alone; read-out: MIC (μg/mL) Alone
T3 construct: ZC-YN7 (NDM-9)
Method: as §1

[4] = test system: T4, E. cloacae 20710 (VIM-1); details: Enterobacter cloacae; antibiotic alone; read-out: MIC (μg/mL) Alone
T4 construct: 20710 (VIM-1)
Method: as §1

[5] = test system: T5, E. coli ZC-YN3 (NDM-1); details: Escherichia coli; antibiotic alone; read-out: MIC (μg/mL) Alone
T5 construct: ZC-YN3 (NDM-1)
Method: as §1

[6] = test system: T6, E. coli BL21 (pET28a-SP-NDM-1); details: Escherichia coli, read-out: MIC (μg/mL) Alone
T6 construct: BL21 (pET28a-SP-NDM-1)
Method: as §1

[7] = test system: T7, E. coli E4 (NDM-5); details: Escherichia coli; antibiotic alone; read-out: MIC (μg/mL) Alone
T7 construct: E4 (NDM-5)
Method: as §1

[8] = test system: T8, E. coli E2 (NDM-9); details: Escherichia coli; antibiotic alone; read-out: MIC (μg/mL) Alone
T8 construct: E2 (NDM-9)
Method: as §1

[9] = test system: T9, E. cloacae 20712 (VIM-1); details: Enterobacter cloacae; antibiotic alone; read-out: MIC (μg/mL) Alone
T9 construct: 20712 (VIM-1)
Method: as §1

[10] = test system: T10, E. coli 2Z69 (NDM-5); details: Escherichia coli; antibiotic alone; read-out: MIC (μg/mL) Alone
T10 construct: 2Z69 (NDM-5)
Method: as §1

[11] = test system: T11, K. pneumoniae QD-KP3 (NDM-1); details: Klebsiella pneumoniae; antibiotic alone; read-out: MIC (μg/mL) Alone
T11 construct: QD-KP3 (NDM-1)
Method: as §1

[12] = test system: T12, E. coli ATCC 25922; details: Escherichia coli, ATCC25922; antibiotic alone; read-out: MIC (μg/mL) Alone
T12 construct: ATCC 25922
Method: (§2) MIC values were determined according to the broth microdilution guidelines of the Clinical and Laboratory Standards Institute (CLSI). After the tested strains were diluted with LB to a final concentration of 5×10^5 CFUs/mL, various concentrations of meropenem (0-256 μg/mL) and increasing concentrations of inhibitors (0-64 μg/mL) were added to the sterile 96-well plate, and further incubated for 18-24 h at 37 °C. The lowest concentration with no visible growth was considered as the MIC value.

[13] = test system: T13, E. coli 2Z49 (NDM-5); details: Escherichia coli; antibiotic alone; read-out: MIC (μg/mL) Alone
T13 construct: 2Z49 (NDM-5)
Method: as §2

[14] = test system: T14, K. pneumoniae QD-KP2 (NDM-1); details: Klebsiella pneumoniae; antibiotic alone; read-out: MIC (μg/mL) Alone
T14 construct: QD-KP2 (NDM-1)
Method: as §2

[15] = test system: T15, K. pneumoniae QD-KP1 (NDM-1); details: Klebsiella pneumoniae; antibiotic alone; read-out: MIC (μg/mL) Alone
T15 construct: QD-KP1 (NDM-1)
Method: as §2

[16] = test system: T16, E. coli E1 (NDM-1); details: Escherichia coli; antibiotic alone; read-out: MIC (μg/mL) Alone
T16 construct: E1 (NDM-1)
Method: as §2

Question: For `CC1(C)S[C@@H]2[C@H](NC(=O)[C@H](N)c3ccc(O)cc3)C(=O)N2[C@H]1C(=O)O` [Amoxicillin], which MIC [1] is on record?
Answer: 512 µg/mL (≈ 1400 µM)

Question: For `O=C(N[C@H](CO)[C@H](O)c1ccc([N+](=O)[O-])cc1)C(Cl)Cl` [Chloramphenicol], which MIC [1] is on record?
Answer: 8 µg/mL (≈ 24.8 µM)

Question: Which MIC [1] does the source give for `CNC(C)[C@@H]1CC[C@@H](N)[C@@H](O[C@H]2[C@H](O)[C@@H](O[C@H]3OC[C@](C)(O)[C@H](NC)[C@H]3O)[C@H](N)C[C@@H]2N)O1` (stereo partly drawn) [Gentamicin] here?
Answer: 341 ± 121 µg/mL (≈ 715 µM)

Question: How did the MIC [1] turn out when `C[C@@H](O)[C@H]1C(=O)N2C(C(=O)O)=C(SCCNC=N)C[C@H]12` [Imipenem] was run?
Answer: 13.3 ± 3.77 µg/mL (≈ 44.5 µM)

Question: How did the MIC [1] turn out when `C[C@@H](O)[C@H]1C(=O)N2C(C(=O)O)=C(S[C@@H]3CN[C@H](C(=O)N(C)C)C3)[C@H](C)[C@H]12` [Meropenem] was run?
Answer: 32 µg/mL (≈ 83.4 µM)

Question: And the MIC [2]?
Answer: 13.3 ± 3.77 µg/mL (≈ 34.8 µM)

Question: And the MIC [3]?
Answer: 13.3 ± 3.77 µg/mL (≈ 34.8 µM)

Question: What about the MIC [4] of the same compound?
Answer: 32 µg/mL (≈ 83.4 µM)

Question: And the MIC [5]?
Answer: 21.3 ± 7.54 µg/mL (≈ 55.6 µM)

Question: And the MIC [6]?
Answer: 128 µg/mL (≈ 334 µM)

Question: What about the MIC [7] of the same compound?
Answer: 53.3 ± 15.1 µg/mL (≈ 139 µM)

Question: What about the MIC [8] of the same compound?
Answer: 53.3 ± 15.1 µg/mL (≈ 139 µM)

Question: And the MIC [9]?
Answer: 32 µg/mL (≈ 83.4 µM)

Question: What about the MIC [10] of the same compound?
Answer: 32 µg/mL (≈ 83.4 µM)

Question: What about the MIC [11] of the same compound?
Answer: 128 µg/mL (≈ 334 µM)

Question: What about the MIC [12] of the same compound?
Answer: 0.03 µg/mL (≈ 0.0782 µM)

Question: What about the MIC [13] of the same compound?
Answer: 32 µg/mL (≈ 83.4 µM)

Question: And the MIC [14]?
Answer: 107 ± 30.2 µg/mL (≈ 278 µM)

Question: What about the MIC [15] of the same compound?
Answer: 64 µg/mL (≈ 167 µM)

Question: What about the MIC [16] of the same compound?
Answer: 13.3 ± 3.77 µg/mL (≈ 34.8 µM)

Question: How did the MIC [1] turn out when `CN(C)[C@@H]1C(O)=C(C(N)=O)C(=O)[C@@]2(O)C(O)=C3C(=O)c4c(O)cccc4[C@@](C)(O)[C@H]3C[C@@H]12` [Tetracycline] was run?
Answer: 213 ± 60.3 µg/mL (≈ 480 µM)
